Results reported in publication PMC10836395, “Investigation of how gate residues in the main channel affect the catalytic activity of Scytalidium thermophilum catalase” (Acta Crystallographica. Section D, Structural Biology, 2024).
Read-outs that look alike come from different tables or passages of the source. Marks after values point to notes of the source that are not given here.

Experiments:
CATPO T188I variant [1] = biological target: T1, CATPO T188I variant (Scytalidium thermophilum (Humicola insolens), UniProt M4GGR5, T207I); test: biochemical
CATPO T188D variant [2] = biological target: T2, CATPO T188D variant (Scytalidium thermophilum (Humicola insolens), UniProt M4GGR5, T207D); format: biochemical; details: for K m: pH 7.0 (ABTS pH 5.0), 60°C
CATPO T188F variant [3] = biological target: T3, CATPO T188F variant (Scytalidium thermophilum (Humicola insolens), UniProt M4GGR5, T207F); format: biochemical; details: for K m: pH 7.0 (ABTS pH 5.0), 60°C
CATPO T188F variant [4] = biological target: T3, CATPO T188F variant; test: biochemical
CATPO [5] = biological target: T4, CATPO (Scytalidium thermophilum (Humicola insolens), UniProt M4GGR5); test: Substrate-specificity analysis of the phenol oxidase activity; format: biochemical
CATPO E484A variant [6] = biological target: T5, CATPO E484A variant (Scytalidium thermophilum (Humicola insolens), UniProt M4GGR5, E503A); test: as above; format: biochemical; details: for K m: pH 7.0 (ABTS pH 5.0), 60°C
CATPO E484I variant [7] = biological target: T6, CATPO E484I variant (Scytalidium thermophilum (Humicola insolens), UniProt M4GGR5, E503I); format: biochemical; details: for K m: pH 7.0 (ABTS pH 5.0), 60°C
CATPO T188A variant [8] = biological target: T7, CATPO T188A variant (Scytalidium thermophilum (Humicola insolens), UniProt M4GGR5, T207A); format: biochemical; details: for K m: pH 7.0 (ABTS pH 5.0), 60°C
CATPO T188A variant [9] = biological target: T7, CATPO T188A variant; test: biochemical
CATPO E484D variant [10] = biological target: T8, CATPO E484D variant (Scytalidium thermophilum (Humicola insolens), UniProt M4GGR5, E503D); format: biochemical; details: for K m: pH 7.0 (ABTS pH 5.0), 60°C
CATPO [11] = biological target: T4, CATPO; test: Inhibition of catechol oxidation; format: biochemical
CATPO T188I variant [12] = biological target: T1, CATPO T188I variant; format: biochemical; details: for K m: pH 7.0 (ABTS pH 5.0), 60°C
CATPO E484D variant [13] = biological target: T8, CATPO E484D variant; test: biochemical
CATPO E484A variant [14] = biological target: T5, CATPO E484A variant; test: biochemical
CATPO E484I variant [15] = biological target: T6, CATPO E484I variant; test: biochemical
CATPO T188D variant [16] = biological target: T2, CATPO T188D variant; test: biochemical
CATPO variants = test: Effects on the phenol oxidase activity of the CATPO variants taken together; format: biochemical, Scytalidium thermophilum; details: hydrogen peroxide 1–100 mM or ethanol 2–200 mM, before or after the addition of catechol
Method: All inhibition assays were performed in triplicate.

[17] = catechol oxidation by CATPO, catechol 1 to 100 mM, read-out: K i

T3 sequence (M4GGR5 entry or part of it T207F): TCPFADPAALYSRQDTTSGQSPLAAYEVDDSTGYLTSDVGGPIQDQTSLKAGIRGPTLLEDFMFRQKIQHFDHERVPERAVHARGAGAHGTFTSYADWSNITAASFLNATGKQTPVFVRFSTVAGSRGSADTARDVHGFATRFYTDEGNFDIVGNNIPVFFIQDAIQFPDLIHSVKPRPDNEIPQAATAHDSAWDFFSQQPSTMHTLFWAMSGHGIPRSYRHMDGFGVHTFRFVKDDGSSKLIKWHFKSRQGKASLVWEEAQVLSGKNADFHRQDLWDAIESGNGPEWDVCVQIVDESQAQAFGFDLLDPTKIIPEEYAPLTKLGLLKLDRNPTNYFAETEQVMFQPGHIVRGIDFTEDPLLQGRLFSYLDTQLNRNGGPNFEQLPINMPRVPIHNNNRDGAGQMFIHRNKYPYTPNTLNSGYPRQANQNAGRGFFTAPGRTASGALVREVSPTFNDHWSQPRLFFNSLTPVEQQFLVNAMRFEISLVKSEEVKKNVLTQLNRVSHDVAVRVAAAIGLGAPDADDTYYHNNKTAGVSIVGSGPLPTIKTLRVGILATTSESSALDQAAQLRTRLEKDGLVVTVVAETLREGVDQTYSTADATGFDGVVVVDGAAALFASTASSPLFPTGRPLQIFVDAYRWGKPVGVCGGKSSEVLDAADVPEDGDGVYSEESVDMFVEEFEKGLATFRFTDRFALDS
T5 sequence (M4GGR5 entry or part of it E503A): as the sequence (M4GGR5 entry or part of it T207F) above
T7 sequence (M4GGR5 entry or part of it T207A): as the sequence (M4GGR5 entry or part of it T207F) above
T1 sequence (M4GGR5 entry or part of it T207I): as the sequence (M4GGR5 entry or part of it T207F) above
T8 sequence (M4GGR5 entry or part of it E503D): as the sequence (M4GGR5 entry or part of it T207F) above
T4 sequence (M4GGR5 entry or part of it): as the sequence (M4GGR5 entry or part of it T207F) above
T2 sequence (M4GGR5 entry or part of it T207D): as the sequence (M4GGR5 entry or part of it T207F) above
T6 sequence (M4GGR5 entry or part of it E503I): as the sequence (M4GGR5 entry or part of it T207F) above

Structure (SMILES) | Ki (CATPO T188I variant [1]) [mM] | V max (CATPO T188D variant [2]) [mM/min] | k cat/K m (CATPO T188D variant [2]) | K m (CATPO T188D variant [2]) [mM] | V max (CATPO T188F variant [3]) [mM/min] | k cat/K m (CATPO T188F variant [3]) | K m (CATPO T188F variant [3]) [mM] | Ki (CATPO T188F variant [4]) [mM] | V max (CATPO [5]) [mM/min] | k cat/K m (CATPO [5]) | V max (CATPO E484A variant [6]) [mM/min] | k cat/K m (CATPO E484A variant [6]) | K m (CATPO E484A variant [6]) [mM] | V max (CATPO E484I variant [7]) [mM/min] | k cat/K m (CATPO E484I variant [7]) | K m (CATPO E484I variant [7]) [mM] | V max (CATPO T188A variant [8]) [mM/min] | k cat/K m (CATPO T188A variant [8]) | K m (CATPO T188A variant [8]) [mM] | Ki (CATPO T188A variant [9]) [mM] | other results
CC(C)(C)c1ccc(O)c(O)c1 [1,4-tert-Butylcatechol, 4-tert-butylcatechol] | 53 ± 4.5 | 18000 ± 500 | 6590 ± 150 s^−1 M^−1 (×10^2) | 38 ± 0.5 | 41600 ± 340 | 5230 ± 145 s^−1 M^−1 (×10^2) | 34 ± 0.4 | 59 ± 4.5 | 20000 ± 362 | 1240 ± 90 s^−1 M^−1 (×10^2) | 65000 ± 745 | 10000 ± 65 s^−1 M^−1 (×10^2) | 33 ± 0.5 | 28600 ± 430 | 4450 ± 66 s^−1 M^−1 (×10^2) | 37 ± 0.4 | 19400 ± 568 | 1460 ± 150 s^−1 M^−1 (×10^2) | 37 ± 1.0 | 2.1 ± 0.1 | V max (CATPO E484D variant [10]): 18800 ± 144 mM/min; k cat/K m (CATPO E484D variant [10]): 1300 ± 100 s^−1 M^−1 (×10^2); K m (CATPO E484D variant [10]): 38 ± 0.5 mM; Ki (CATPO [11]; [17]): 2.1 ± 0.8 mM; V max (CATPO T188I variant [12]): 30500 ± 650 mM/min; k cat/K m (CATPO T188I variant [12]): 4900 ± 410 s^−1 M^−1 (×10^2); K m (CATPO T188I variant [12]): 35 ± 0.5 mM; Ki (CATPO E484D variant [13]): 2.2 ± 0.5 mM; Ki (CATPO E484A variant [14]): 67 ± 7 mM; Ki (CATPO E484I variant [15]): 50 ± 1.5 mM; Ki (CATPO T188D variant [16]): 49 ± 3.2 mM
Cc1ccc(O)c(O)c1 [4-Methylcatechol, 4-methylcatechol] | 40 ± 2.4 | 28000 ± 970 | 7620 ± 100 s^−1 M^−1 (×10^2) | 30 ± 0.1 | 54150 ± 800 | 6570 ± 560 s^−1 M^−1 (×10^2) | 32 ± 1.0 | 45 ± 4.8 | 21320 ± 845 | 1580 ± 110 s^−1 M^−1 (×10^2) | 75500 ± 550 | 10100 ± 90 s^−1 M^−1 (×10^2) | 33 ± 1.0 | 41500 ± 840 | 5480 ± 80 s^−1 M^−1 (×10^2) | 35 ± 0.7 | 21000 ± 880 | 1640 ± 210 s^−1 M^−1 (×10^2) | 35 ± 1.0 | 1.5 ± 0.4 | V max (CATPO E484D variant [10]): 20600 ± 712 mM/min; k cat/K m (CATPO E484D variant [10]): 1500 ± 88 s^−1 M^−1 (×10^2); K m (CATPO E484D variant [10]): 36 ± 0.1 mM; Ki (CATPO [11]; [17]): 1.5 ± 0.4 mM; V max (CATPO T188I variant [12]): 43000 ± 900 mM/min; k cat/K m (CATPO T188I variant [12]): 6600 ± 600 s^−1 M^−1 (×10^2); K m (CATPO T188I variant [12]): 34 ± 1.2 mM; Ki (CATPO E484D variant [13]): 1.5 ± 0.1 mM; Ki (CATPO E484A variant [14]): 55 ± 5 mM; Ki (CATPO E484I variant [15]): 46 ± 2 mM; Ki (CATPO T188D variant [16]): 50 ± 2.5 mM
Oc1ccc(O)cc1 [Hydroquinone, p-hydroquinone] | 70 ± 4 | 9600 ± 65 | 480 ± 64 s^−1 M^−1 (×10^2) | 46 ± 1.0 | 13000 ± 140 | 530 ± 65 s^−1 M^−1 (×10^2) | 42 ± 1.0 | 76 ± 5.1 | 10000 ± 300 | 750 ± 50 s^−1 M^−1 (×10^2) | 17800 ± 100 | 600 ± 40 s^−1 M^−1 (×10^2) | 43 ± 1.2 | 10000 ± 100 | 460 ± 20 s^−1 M^−1 (×10^2) | 45 ± 1.3 | 9850 ± 85 | 300 ± 30 s^−1 M^−1 (×10^2) | 46 ± 0.4 | 8.6 ± 0.6 | K m (CATPO [5]; pH 7.0 (ABTS pH 5.0), 60°C): 45 ± 1.5 mM; V max (CATPO E484D variant [10]): 9900 ± 125 mM/min; k cat/K m (CATPO E484D variant [10]): 300 ± 50 s^−1 M^−1 (×10^2); K m (CATPO E484D variant [10]): 46 ± 0.8 mM; Ki (CATPO [11]): 8.5 ± 0.5 mM; V max (CATPO T188I variant [12]): 11000 ± 110 mM/min; k cat/K m (CATPO T188I variant [12]): 490 ± 78 s^−1 M^−1 (×10^2); K m (CATPO T188I variant [12]): 44 ± 0.4 mM; Ki (CATPO E484D variant [13]): 8.5 ± 1.4 mM; Ki (CATPO E484A variant [14]): 81 ± 4.7 mM; Ki (CATPO E484I variant [15]): 70 ± 3.5 mM; Ki (CATPO T188D variant [16]): 66 ± 5.5 mM
CCO [ethanol] |  |  |  |  |  |  |  |  |  |  |  |  |  |  |  |  |  |  |  |  | effect of addition on phenol oxidase activity (CATPO variants): not affected
OO [hydrogen peroxide] |  |  |  |  |  |  |  |  |  |  |  |  |  |  |  |  |  |  |  |  | effect of addition on phenol oxidase activity (CATPO variants): not affected
